Reference: publication PMC4795001 (Chemical communications (Cambridge, England), 2015)
Like-named read-outs stand apart in the source and are kept apart here.

Columns and labels:
holo-TycB1 (recombinant) = target: T1, holo-TycB1 (recombinant) (Brevibacillus parabrevis, UniProt O30408); experiment: coupled hydroxamate-MesG continuous spectrophotometric assay; format: biochemical
T1 sequence (O30408 1-1080 limits assumed): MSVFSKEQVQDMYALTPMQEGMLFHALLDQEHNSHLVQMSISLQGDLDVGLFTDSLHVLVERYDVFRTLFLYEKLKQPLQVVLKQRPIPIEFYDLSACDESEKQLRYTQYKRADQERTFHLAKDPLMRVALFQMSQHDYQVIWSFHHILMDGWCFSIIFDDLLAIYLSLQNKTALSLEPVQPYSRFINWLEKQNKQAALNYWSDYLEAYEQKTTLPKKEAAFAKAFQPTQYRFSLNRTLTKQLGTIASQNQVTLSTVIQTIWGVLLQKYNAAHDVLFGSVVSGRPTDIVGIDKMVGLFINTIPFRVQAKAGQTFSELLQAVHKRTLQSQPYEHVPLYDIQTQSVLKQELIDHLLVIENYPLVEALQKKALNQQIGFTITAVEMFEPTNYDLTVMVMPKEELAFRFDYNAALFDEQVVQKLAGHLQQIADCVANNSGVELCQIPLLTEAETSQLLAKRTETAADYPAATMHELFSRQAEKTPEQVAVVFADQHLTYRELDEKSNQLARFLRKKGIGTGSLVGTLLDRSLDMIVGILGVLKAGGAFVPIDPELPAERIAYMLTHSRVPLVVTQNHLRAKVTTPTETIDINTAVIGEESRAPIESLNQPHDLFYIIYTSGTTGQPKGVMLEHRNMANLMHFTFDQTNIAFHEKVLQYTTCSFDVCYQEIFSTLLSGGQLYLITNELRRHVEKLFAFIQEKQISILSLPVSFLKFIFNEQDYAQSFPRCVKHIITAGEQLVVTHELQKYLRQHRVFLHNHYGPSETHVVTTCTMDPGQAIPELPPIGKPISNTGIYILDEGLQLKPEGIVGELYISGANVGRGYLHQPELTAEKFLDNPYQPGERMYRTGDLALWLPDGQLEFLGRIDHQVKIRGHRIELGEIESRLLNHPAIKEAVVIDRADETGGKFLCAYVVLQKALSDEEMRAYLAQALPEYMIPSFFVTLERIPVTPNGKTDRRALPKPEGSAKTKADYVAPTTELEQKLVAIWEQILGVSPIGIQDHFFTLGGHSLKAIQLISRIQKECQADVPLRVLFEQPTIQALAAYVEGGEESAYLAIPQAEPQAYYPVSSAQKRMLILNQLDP

holo-GrsA (recombinant) = target: T2, holo-GrsA (recombinant) (Aneurinibacillus migulanus, UniProt P0C061); experiment: as above; format: biochemical; conditions: read-out: Ki^app; tight-binding; A domain active site
T2 sequence (P0C061 1-1098): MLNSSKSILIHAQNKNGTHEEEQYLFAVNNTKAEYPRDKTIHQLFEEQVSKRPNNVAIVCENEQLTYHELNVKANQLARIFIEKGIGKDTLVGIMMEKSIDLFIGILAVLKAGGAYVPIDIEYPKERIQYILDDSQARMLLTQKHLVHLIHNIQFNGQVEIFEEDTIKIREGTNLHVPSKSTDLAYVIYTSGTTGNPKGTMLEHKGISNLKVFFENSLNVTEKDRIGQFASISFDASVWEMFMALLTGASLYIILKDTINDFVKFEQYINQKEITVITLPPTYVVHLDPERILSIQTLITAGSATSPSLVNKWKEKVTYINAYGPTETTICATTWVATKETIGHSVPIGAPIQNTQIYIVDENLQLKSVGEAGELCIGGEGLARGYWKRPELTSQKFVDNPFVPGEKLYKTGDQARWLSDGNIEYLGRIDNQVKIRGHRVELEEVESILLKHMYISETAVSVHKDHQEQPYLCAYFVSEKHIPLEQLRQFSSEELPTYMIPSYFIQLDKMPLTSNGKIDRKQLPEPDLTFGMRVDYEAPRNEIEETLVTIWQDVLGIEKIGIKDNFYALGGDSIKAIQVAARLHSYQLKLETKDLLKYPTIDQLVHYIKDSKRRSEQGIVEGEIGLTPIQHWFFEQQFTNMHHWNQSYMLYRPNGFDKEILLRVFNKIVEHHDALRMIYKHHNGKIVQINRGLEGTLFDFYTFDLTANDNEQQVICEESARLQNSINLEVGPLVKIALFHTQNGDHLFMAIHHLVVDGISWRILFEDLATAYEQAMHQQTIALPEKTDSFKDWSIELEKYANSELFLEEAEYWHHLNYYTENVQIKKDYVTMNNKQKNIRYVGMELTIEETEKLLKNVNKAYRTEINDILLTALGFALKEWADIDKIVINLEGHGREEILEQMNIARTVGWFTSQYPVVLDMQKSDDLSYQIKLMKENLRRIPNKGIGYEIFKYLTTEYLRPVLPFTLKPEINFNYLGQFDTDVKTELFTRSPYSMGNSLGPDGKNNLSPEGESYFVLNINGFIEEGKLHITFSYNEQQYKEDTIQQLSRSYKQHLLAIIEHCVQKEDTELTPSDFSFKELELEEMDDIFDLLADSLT

L-Pro-AMS-BPyne [compound 2]
Ki (holo-TycB1 (recombinant); read-out: Ki^app, tight-binding, A domain active site): 327 ± 17 nM

Nc1ncnc2c1ncn2[C@@H]1O[C@H](COS(=O)(=O)NC(=O)[C@@H]2CCCN2)[C@@H](O)[C@H]1O [compound 5, L-Pro-AMS]
Ki (holo-TycB1 (recombinant)): 431 ± 42 nM

L-Phe-AMS-BPyne [compound 1]
Ki (holo-GrsA (recombinant)): 1.43 ± 0.19 nM
